Reference: PubChem BioAssay AID180 (DTP/NCI, 2004)
“And” between values parts separate entries of the source, which are not always exact repeats. Identical values can stand only once.

Tested on: BDF1 mice, Adenocarcinoma 755 s.c., tumor weight T/C
Assay: NCI In Vivo Anticancer Drug Screen. Data for tumor model Adenocarcinoma 755 (subcutaneous) in B6D2F1 (BDF1) mice
Conditions: endpoint: mean tumor weight, higher = larger tumour
Method: The antitumor activity of compounds was measured in mice bearing transplantable tumors. Survival or tumor size were measured and the results are expressed as the measurement made in the treated group (T) divided by the measurement made in the vehicle treated control group (C). The tumor model used in this assay is Adenocarcinoma 755 (subcutaneous) in B6D2F1 (BDF1) mice

[1] = dose: 25.0 mg/kg/injection, schedule: Q01DX011 (ip), vehicle: saline
[2] = dose: 50.0 mg/kg/injection, schedule: Q01DX011 (ip), vehicle: saline
[3] = dose: 100.0 mg/kg/injection, schedule: Q01DX011 (ip), vehicle: saline
[4] = dose: 12.5 mg/kg/injection, schedule: Q01DX011 (ip), vehicle: saline
[5] = dose: 15.0 mg/kg/injection, schedule: Q01DX011 (ip), vehicle: methylcellulose (MC)
[6] = dose: 31.0 mg/kg/injection, schedule: Q01DX011 (ip), vehicle: methylcellulose (MC)
[7] = dose: 62.0 mg/kg/injection, schedule: Q01DX011 (ip), vehicle: methylcellulose (MC)
[8] = dose: 125.0 mg/kg/injection, schedule: Q01DX011 (ip), vehicle: methylcellulose (MC)
[9] = dose: 250.0 mg/kg/injection, schedule: Q01DX011 (ip), vehicle: methylcellulose (MC)

`CC(C)Sc1nc(N)nc2nc[nH]c12` was tested, and the T/C (dose: 1.0 mg/kg/injection, schedule: Q01DX011 (ip), vehicle: saline) was 41 % of control, the T/C (dose: 1.6 mg/kg/injection, schedule: Q01DX011 (ip), vehicle: methylcellulose (MC)) was 16 % of control and the T/C (dose: 3.0 mg/kg/injection, schedule: Q01DX011 (ip), vehicle: saline) was 41 % of control. For the same compound, the T/C (dose: 3.1 mg/kg/injection, schedule: Q01DX011 (ip), vehicle: methylcellulose (MC)) was 11 % of control, the T/C (dose: 6.0 mg/kg/injection, schedule: Q01DX011 (ip), vehicle: saline) was 30 % of control and the T/C (dose: 6.25 mg/kg/injection, schedule: Q01DX011 (ip), vehicle: methylcellulose (MC)) was 2 % of control. The T/C (dose: 12.0 mg/kg/injection, schedule: Q01DX011 (ip), vehicle: saline) was 37 % of control, the T/C (dose: 12.5 mg/kg/injection, schedule: Q01DX011 (ip), vehicle: methylcellulose (MC)) was 1 % of control and the T/C [1] was 17 % of control. The T/C [2] was 4 % of control, the T/C [3] was 7 % of control and the T/C (dose: 125.0 micrograms/kg/injection, schedule: Q01DX011 (ip), vehicle: saline) was 76 % of control. The T/C (dose: 250.0 micrograms/kg/injection, schedule: Q01DX011 (ip), vehicle: saline) was 77 % of control, the T/C (dose: 500.0 micrograms/kg/injection, schedule: Q01DX011 (ip), vehicle: saline) was 52 % of control and the T/C (dose: 1000.0 micrograms/kg/injection, schedule: Q01DX011 (ip), vehicle: saline) was 80 % of control.

In the case of `COc1ncnc2nc[nH]c12`, the T/C (dose: 62.0 mg/kg/injection, schedule: Q01DX011 (ip), vehicle: other) is reported as 107 % of control, the T/C (dose: 125.0 mg/kg/injection, schedule: Q01DX011 (ip), vehicle: other) is reported as 90 % of control and the T/C (dose: 250.0 mg/kg/injection, schedule: Q01DX011 (ip), vehicle: other) is reported as 44 % of control.

In the case of `Nc1c(Br)cc2c(c1Br)Cc1cc([N+](=O)[O-])ccc1-2`, the T/C (dose: 1.5 mg/kg/injection, schedule: Q01DX011 (ip), vehicle: carboxymethylcellulose (CMC)) is reported as 85 % of control, the T/C (dose: 3.0 mg/kg/injection, schedule: Q01DX011 (ip), vehicle: carboxymethylcellulose (CMC)) is reported as 63 % of control and the T/C (dose: 6.0 mg/kg/injection, schedule: Q01DX011 (ip), vehicle: carboxymethylcellulose (CMC)) is reported as 43 % of control. The T/C (dose: 6.0 mg/kg/injection, schedule: Q01DX011 (ip), vehicle: other) was 94 % of control, the T/C (dose: 6.25 mg/kg/injection, schedule: Q01DX011 (ip), vehicle: saline) was 109 % of control and the T/C (dose: 12.0 mg/kg/injection, schedule: Q01DX011 (ip), vehicle: carboxymethylcellulose (CMC)) was 22 % of control. The T/C [4] was 69 % of control, the T/C (dose: 25.0 mg/kg/injection, schedule: Q01DX011 (ip), vehicle: carboxymethylcellulose (CMC)) was 7 % of control and the T/C [1] was 82 % of control. The T/C (dose: 27.5 mg/kg/injection, schedule: Q01DX011 (ip), vehicle: saline) was 46 % of control, the T/C (dose: 50.0 mg/kg/injection, schedule: Q01DX011 (ip), vehicle: carboxymethylcellulose (CMC)) was 12 % of control and the T/C [2] was 57 % of control. For the same compound, the T/C (dose: 50.0 mg/kg/injection, schedule: Q01DX011 (oral), vehicle: saline) was 90 % of control, the T/C (dose: 55.0 mg/kg/injection, schedule: Q01DX011 (ip), vehicle: saline) was 29 % of control and the T/C (dose: 100.0 mg/kg/injection, schedule: Q01DX011 (ip), vehicle: carboxymethylcellulose (CMC)) was 19 % of control. The T/C [3] was 63 % of control, the T/C (dose: 100.0 mg/kg/injection, schedule: Q01DX011 (oral), vehicle: saline) was 72 % of control and the T/C (dose: 110.0 mg/kg/injection, schedule: Q01DX011 (ip), vehicle: other) was 17 % of control and 30 % of control. The T/C (dose: 110.0 mg/kg/injection, schedule: Q01DX011 (ip), vehicle: saline) was 21 % of control and 38 % of control, the T/C (dose: 200.0 mg/kg/injection, schedule: Q01DX011 (ip), vehicle: carboxymethylcellulose (CMC)) was 8 % of control and the T/C (dose: 200.0 mg/kg/injection, schedule: Q01DX011 (ip), vehicle: saline) was 46 % of control. The T/C (dose: 200.0 mg/kg/injection, schedule: Q01DX011 (oral), vehicle: saline) was 91 % of control, the T/C (dose: 225.0 mg/kg/injection, schedule: Q01DX011 (ip), vehicle: other) was 17 % of control and 32 % of control and the T/C (dose: 400.0 mg/kg/injection, schedule: Q01DX011 (oral), vehicle: saline) was 117 % of control. The T/C (dose: 450.0 mg/kg/injection, schedule: Q01DX011 (ip), vehicle: other) was 6 % of control, the T/C (dose: 800.0 mg/kg/injection, schedule: Q01DX011 (oral), vehicle: saline) was 66 % of control and the T/C (dose: 900.0 mg/kg/injection, schedule: Q01DX011 (ip), vehicle: other) was 15 % of control.

`O=C(O)c1cc2ccccc2c2cccc([N+](=O)[O-])c12` was tested, and the T/C (dose: 1.75 mg/kg/injection, schedule: Q01DX011 (ip), vehicle: carboxymethylcellulose (CMC)) was 63 % of control, the T/C (dose: 3.5 mg/kg/injection, schedule: Q01DX011 (ip), vehicle: carboxymethylcellulose (CMC)) was 89 % of control and the T/C (dose: 7.0 mg/kg/injection, schedule: Q01DX011 (ip), vehicle: carboxymethylcellulose (CMC)) was 59 % of control.

For `NC(N)=N/N=C/c1c(O)ccc2ccccc12`, the T/C [4] was 77 % of control, the T/C [1] was 67 % of control and the T/C [2] was 54 % of control.

`COc1cc(-c2ccc(N=Nc3c(O)ccc4ccccc34)c(OC)c2)ccc1N=Nc1ccc2c(S(=O)(=O)O)cc(S(=O)(=O)O)c(N)c2c1O` was tested, and the T/C (dose: 62.0 mg/kg/injection, schedule: Q01DX011 (ip), vehicle: carboxymethylcellulose (CMC)) was 63 % of control and 75 % of control, the T/C (dose: 112.0 mg/kg/injection, schedule: Q01DX011 (ip), vehicle: carboxymethylcellulose (CMC)) was 60 % of control and 79 % of control and the T/C (dose: 225.0 mg/kg/injection, schedule: Q01DX011 (ip), vehicle: carboxymethylcellulose (CMC)) was 39 % of control and 64 % of control. The T/C (dose: 450.0 mg/kg/injection, schedule: Q01DX011 (ip), vehicle: carboxymethylcellulose (CMC)) was 29 % of control.

`CN(C)c1ccc(/C=C/c2ccnc3ccccc23)cc1` was tested, and the T/C (dose: 4.0 mg/kg/injection, schedule: Q01DX011 (ip), vehicle: water) was 117 % of control, the T/C (dose: 8.0 mg/kg/injection, schedule: Q01DX011 (ip), vehicle: water) was 105 % of control and the T/C (dose: 16.0 mg/kg/injection, schedule: Q01DX011 (ip), vehicle: water) was 72 % of control.

`Cn1c(=O)c2[nH]c(N/N=C/c3ccccc3C(=O)O)nc2n(C)c1=O` was tested, and the T/C (dose: 30.0 mg/kg/injection, schedule: Q01DX011 (ip), vehicle: carboxymethylcellulose (CMC)) was 103 % of control, the T/C (dose: 60.0 mg/kg/injection, schedule: Q01DX011 (ip), vehicle: carboxymethylcellulose (CMC)) was 92 % of control and the T/C (dose: 120.0 mg/kg/injection, schedule: Q01DX011 (ip), vehicle: carboxymethylcellulose (CMC)) was 88 % of control. For the same compound, the T/C (dose: 240.0 mg/kg/injection, schedule: Q01DX011 (ip), vehicle: carboxymethylcellulose (CMC)) was 95 % of control.

In the case of `CN(N=O)C(=O)C1CC(=O)NC(=O)C1`, the T/C (dose: 2.5 mg/kg/injection, schedule: Q01DX011 (ip), vehicle: carboxymethylcellulose (CMC)) is reported as 39 % of control, the T/C (dose: 5.0 mg/kg/injection, schedule: Q01DX011 (ip), vehicle: carboxymethylcellulose (CMC)) is reported as 102 % of control and the T/C (dose: 10.0 mg/kg/injection, schedule: Q01DX011 (ip), vehicle: carboxymethylcellulose (CMC)) is reported as 114 % of control.

`CCCCCCCCSc1ncnc2c1ncn2CCCC` was tested, and the T/C (dose: 93.0 mg/kg/injection, schedule: Q01DX011 (ip), vehicle: saline) was 92 % of control, the T/C (dose: 250.0 mg/kg/injection, schedule: Q01DX011 (ip), vehicle: saline) was 97 % of control and the T/C (dose: 375.0 mg/kg/injection, schedule: Q01DX011 (ip), vehicle: saline) was 77 % of control.

For `CN1CC[C@]23c4c5ccc(O)c4O[C@H]2C(=O)CC[C@@]3(O)[C@H]1C5`, the T/C (dose: 4.5 mg/kg/injection, schedule: Q01DX011 (ip), vehicle: methylcellulose (MC)) was 61 % of control and 73 % of control and 74 % of control.

With `Nc1nc(Cl)cc(-c2ccccc2)n1` the T/C [5] was 86 % of control, the T/C [6] was 122 % of control and the T/C [7] was 94 % of control. For the same compound, the T/C [8] was 65 % of control and the T/C [9] was 107 % of control.

With `O=c1[nH]cc(Br)c(=S)[nH]1` the T/C [5] was 64 % of control, the T/C [6] was 86 % of control and the T/C [7] was 80 % of control. For the same compound, the T/C [8] was 119 % of control and the T/C [9] was 109 % of control.
